Laboratory results published in patent US20100240069A1, “Drug Discovery Assay for Modulators of HIF-Prolyl Hydroxylase Activity” (Boehringer Ingelheim International GmbH, priority 2009, published 2010).
Where two headings read alike, the source gives them in different places.

What was measured:
[1] = tested on: recombinant rhesus HPH protein; experiment: Effect of additives on activity of recombinant rhesus HPH enzyme; format: biochemical, rhesus monkey (Macaca mulatta)
rhesus HPH1 = rhesus HPH1 (Macaca mulatta, UniProt H9FPE3, INS27EP); experiment: biochemical
Method: (§1) More specifically, the HPH enzyme assay is conducted in a multi-well plate format. In a suitable buffer, a peptide substrate for the HPH, and a substrate for a protein-based pull down assay, and HPH enzyme are incubated for a period of time and at a temperature sufficient to allow the hydroxylation of the proline-containing substrate to occur. After the incubation period (e.g., 45 min.) the reaction is quenched by the addition of a solution containing the detection reagents. In specific embodiments, the solution comprises EDTA (2.5 mM) and the detection reagents (GST-VBC, Streptavidin-allophycocyanin and Europium-labeled anti-GST Antibody). The detection method in this assay is time-resolved fluorescent assay in which the time-resolved fluorescent signal (excitation at 330 nm; emission at 620 and 665 nm) is read on a plate reader after […] of incubation. The ratio of signal at 665 nm to 620 nm is used to calculate the amount of peptide interaction with GST-VBC as a measure of protein hydroxylation.
(§2) In an exemplary assay, the assay is conducted in a 96 or 384-well plate format. In the 384-well scale, the reaction (10 μl) contains buffer (20 mM MOPS (pH 6.5), 1.5 mM magnesium chloride, 5 mM potassium chloride, 0.1% bovine serum albumin, 1 mM TCEP, 10 μM ferrous ammonium sulfate, and 2 mM sodium ascorbate), substrate (2 μM α-ketoglutarate and 60 nM HIF-1αs peptide (biotin-[…]), enzyme (e.g. 8 nM of HPH3), and an inhibitor from a DMSO solution (1% DMSO final in the assay). After 45 min, the reaction is quenched by the addition of EDTA (2.5 mM) and the detection reagents (GST-VBC, Streptavidin-allophycocyanin and Europium-labeled anti-GST Antibody). The time-resolved fluorescent signal (excitation at 330 nm; emission at 620 and 665 nm) is read on a plate reader after 1 h of incubation. The ratio of signal at 665 nm to 620 nm is used to calculate the amount of peptide interaction with GST-VBC as a measure of protein hydroxylation.
(§3) In the assay, the biotinylated substrate is captured by the Streptavidin which is attached to allophycocyanin. The VBC interacts with the substrate and the interaction is recognized through the aid of an anti GST antibody which is labeled with europium. […] The time-resolved fluorescent signal (excitation at 330 nm; emission at 620 and 665 nm) is read on a plate reader after 1 h of incubation. The ratio of signal at 665 nm to 620 nm is used to calculate the amount of peptide interaction with GST-VBC as a measure of protein hydroxylation.
(§4) The VBC protein complex was generated by co-expression of Glutathione S-Transferase-VHL (von Hippel Lindau), elongin B and elongin C in Escherichia coli followed by purification of the complex using glutathione affinity resin and size-exclusion chromatography.

rhesus HPH2 = rhesus HPH2 (Macaca mulatta, UniProt I2CX88); experiment: biochemical
Method: as §1, §2, §3, §4

rhesus HPH3 = target: T1, rhesus HPH3 (Macaca mulatta, UniProt H9FPE4); experiment: TR-FRET HPH enzyme assay (VBC recognition of hydroxylated peptide), HPH3; format: biochemical, rhesus monkey (Macaca mulatta); settings: recombinant rhesus HPH3, inhibitory activity
T1 construct: fused on or other part: GST tag, N- or C-terminal, for purification
Method: More specifically, the HPH enzyme assay is conducted in a multi-well plate format. In a suitable buffer, a peptide substrate for the HPH, and a substrate for a protein-based pull down assay, and HPH enzyme are incubated for a period of time and at a temperature sufficient to allow the hydroxylation of the proline-containing substrate to occur. After the incubation period (e.g., 45 min.) the reaction is quenched by the addition of a solution containing the detection reagents. In specific embodiments, the solution comprises EDTA (2.5 mM) and the detection reagents (GST-VBC, Streptavidin-allophycocyanin and Europium-labeled anti-GST Antibody). The detection method in this assay is time-resolved fluorescent assay in which the time-resolved fluorescent signal (excitation at 330 nm; emission at 620 and 665 nm) is read on a plate reader after 1 of incubation. The ratio of signal at 665 nm to 620 nm is used to calculate the amount of peptide interaction with GST-VBC as a measure of protein hydroxylation.
In an exemplary assay, the assay is conducted in a 96 or 384-well plate format. […]
In the assay, the biotinylated substrate is captured by the Streptavidin which is attached to allophycocyanin. […] The time-resolved fluorescent signal (excitation at 330 nm; emission at 620 and 665 nm) is read on a plate reader after 1 h of incubation. […]

Sequence of rhesus HPH1 (H9FPE3 1-405, stated change not applied): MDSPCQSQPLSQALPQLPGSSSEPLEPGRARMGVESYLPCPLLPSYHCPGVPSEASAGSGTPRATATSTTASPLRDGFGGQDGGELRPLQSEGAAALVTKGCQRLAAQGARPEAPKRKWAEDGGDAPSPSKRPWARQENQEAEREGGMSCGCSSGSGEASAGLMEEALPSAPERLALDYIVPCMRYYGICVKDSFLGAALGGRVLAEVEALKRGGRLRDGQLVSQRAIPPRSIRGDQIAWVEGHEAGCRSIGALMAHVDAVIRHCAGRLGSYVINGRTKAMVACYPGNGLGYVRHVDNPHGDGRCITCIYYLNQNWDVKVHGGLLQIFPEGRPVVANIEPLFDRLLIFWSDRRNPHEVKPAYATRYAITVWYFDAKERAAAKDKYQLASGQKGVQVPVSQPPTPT
Sequence of rhesus HPH2 (I2CX88 1-426): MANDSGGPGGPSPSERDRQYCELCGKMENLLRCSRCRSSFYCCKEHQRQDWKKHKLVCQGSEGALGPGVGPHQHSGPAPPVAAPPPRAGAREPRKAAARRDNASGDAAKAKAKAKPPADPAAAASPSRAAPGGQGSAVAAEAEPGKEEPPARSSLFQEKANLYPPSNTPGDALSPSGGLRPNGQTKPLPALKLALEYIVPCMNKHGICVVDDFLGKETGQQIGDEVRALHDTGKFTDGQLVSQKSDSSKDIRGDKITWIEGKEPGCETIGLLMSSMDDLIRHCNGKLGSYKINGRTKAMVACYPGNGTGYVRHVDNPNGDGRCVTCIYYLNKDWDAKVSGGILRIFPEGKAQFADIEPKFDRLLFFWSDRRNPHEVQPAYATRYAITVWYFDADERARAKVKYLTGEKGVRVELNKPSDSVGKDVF

**Q.** Which “effect on enzyme activity” value [1] does the source give for `[Cl-].[Cl-].[Co+2]` [CoCl2] here?
**A.** inhibited enzyme activity

**Q.** What does the source list for `NNc1nncc2ccccc12` [Hydralazine]?
**A.** IC50 (rhesus HPH1): 400 µM; IC50 (rhesus HPH2): 320 µM

**Q.** For `O=C(O)CCC(=O)O` [Succinate], which IC50 (rhesus HPH3) is on record?
**A.** 80 µM

**Q.** What about the IC50 (rhesus HPH1; read-out: IC50 HPH1, recombinant rhesus HPH1, inhibitory activity) of the same compound?
**A.** 200 µM

**Q.** And the IC50 (rhesus HPH2; read-out: IC50 HPH2, recombinant rhesus HPH2, inhibitory activity)?
**A.** 380 µM

**Q.** `[Fe+2]` [ferrous iron] was tested. Which “effect on enzyme activity” value ([1]; addition to recombinant rhesus HPH enzyme, isoform not stated) did it give?
**A.** increased the activity of the enzyme
